Experiments:
[1] = molecular target: T1, Alpha-1D adrenergic receptor (Homo sapiens, UniProt P25100); assay: Displacement of [3H]prazosin from recombinant human alpha-1d adrenergic receptor expressed in CHO cell membranes after 30 mins by liquid scintillation counting method
T1 sequence (P25100 whole entry): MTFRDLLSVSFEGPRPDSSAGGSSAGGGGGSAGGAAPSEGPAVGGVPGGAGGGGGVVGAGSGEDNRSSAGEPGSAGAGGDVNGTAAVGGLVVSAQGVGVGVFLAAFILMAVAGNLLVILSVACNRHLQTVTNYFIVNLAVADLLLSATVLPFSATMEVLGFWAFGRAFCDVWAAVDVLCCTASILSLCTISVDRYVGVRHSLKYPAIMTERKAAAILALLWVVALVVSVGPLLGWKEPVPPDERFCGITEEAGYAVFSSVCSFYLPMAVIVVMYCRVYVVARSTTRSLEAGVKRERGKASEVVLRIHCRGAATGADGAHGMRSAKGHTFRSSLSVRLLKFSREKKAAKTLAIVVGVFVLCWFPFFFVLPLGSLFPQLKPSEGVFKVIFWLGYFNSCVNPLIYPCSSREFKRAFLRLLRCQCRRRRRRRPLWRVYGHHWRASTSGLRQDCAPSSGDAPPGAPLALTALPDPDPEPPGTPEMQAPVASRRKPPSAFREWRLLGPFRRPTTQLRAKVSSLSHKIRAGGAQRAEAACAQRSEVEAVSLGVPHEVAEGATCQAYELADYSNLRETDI

[2] = molecular target: T2, 5-hydroxytryptamine receptor 1A (Homo sapiens) (UniProt P08908); assay: Agonist activity at recombinant human 5HT1A receptor expressed in human HeLa cell membranes assessed as stimulation of [35S]GTPgammaS binding preincubated for 20 mins followed by [35S]GTPgammaS addition measured after 30 mins by liquid scintillation counting method; format: functional
T2 sequence (whole entry): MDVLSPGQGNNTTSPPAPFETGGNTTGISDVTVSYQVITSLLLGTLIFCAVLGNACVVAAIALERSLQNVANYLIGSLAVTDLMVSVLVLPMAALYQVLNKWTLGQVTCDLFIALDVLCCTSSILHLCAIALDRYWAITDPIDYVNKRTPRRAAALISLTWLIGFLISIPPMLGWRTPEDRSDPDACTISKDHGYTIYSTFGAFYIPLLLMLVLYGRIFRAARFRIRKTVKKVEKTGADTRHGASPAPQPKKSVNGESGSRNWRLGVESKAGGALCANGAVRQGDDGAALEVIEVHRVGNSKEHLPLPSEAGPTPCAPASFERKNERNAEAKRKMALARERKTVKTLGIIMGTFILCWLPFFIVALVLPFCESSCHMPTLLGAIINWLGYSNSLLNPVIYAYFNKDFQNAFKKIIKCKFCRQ

[3] = molecular target: T3, Alpha-1B adrenergic receptor (Homo sapiens, UniProt P35368); assay: Displacement of [3H]prazosin from recombinant human alpha-1b adrenergic receptor expressed in CHO cell membranes after 30 mins by liquid scintillation counting method
T3 sequence (P35368 whole entry): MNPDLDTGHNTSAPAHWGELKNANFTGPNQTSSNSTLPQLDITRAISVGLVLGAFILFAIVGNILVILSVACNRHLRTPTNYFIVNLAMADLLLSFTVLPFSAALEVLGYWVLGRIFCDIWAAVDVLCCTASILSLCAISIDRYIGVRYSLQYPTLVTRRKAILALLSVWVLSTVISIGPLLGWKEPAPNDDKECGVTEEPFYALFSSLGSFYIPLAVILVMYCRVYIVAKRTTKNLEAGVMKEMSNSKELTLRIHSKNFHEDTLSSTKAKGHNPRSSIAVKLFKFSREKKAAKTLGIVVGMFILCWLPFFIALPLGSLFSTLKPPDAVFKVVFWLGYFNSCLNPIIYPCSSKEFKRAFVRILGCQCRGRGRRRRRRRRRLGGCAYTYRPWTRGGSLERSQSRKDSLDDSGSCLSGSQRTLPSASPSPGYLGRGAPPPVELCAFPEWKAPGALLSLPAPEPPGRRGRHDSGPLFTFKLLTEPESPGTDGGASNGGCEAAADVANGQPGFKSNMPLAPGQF

[4] = molecular target: T4, 5-hydroxytryptamine receptor 1A (Homo sapiens, UniProt P08908); assay: Displacement of [3H]8-OH-DPAT from recombinant human 5HT1A receptor expressed in human HeLa cell membranes after 30 mins by liquid scintillation counting method
T4 sequence (P08908 whole entry): T2 sequence (whole entry)

[5] = molecular target: T5, Alpha-1A adrenergic receptor (Homo sapiens, UniProt P35348); assay: Displacement of [3H]prazosin from recombinant human alpha-1a adrenergic receptor expressed in CHO cell membranes after 30 mins by liquid scintillation counting method
T5 sequence (P35348 whole entry): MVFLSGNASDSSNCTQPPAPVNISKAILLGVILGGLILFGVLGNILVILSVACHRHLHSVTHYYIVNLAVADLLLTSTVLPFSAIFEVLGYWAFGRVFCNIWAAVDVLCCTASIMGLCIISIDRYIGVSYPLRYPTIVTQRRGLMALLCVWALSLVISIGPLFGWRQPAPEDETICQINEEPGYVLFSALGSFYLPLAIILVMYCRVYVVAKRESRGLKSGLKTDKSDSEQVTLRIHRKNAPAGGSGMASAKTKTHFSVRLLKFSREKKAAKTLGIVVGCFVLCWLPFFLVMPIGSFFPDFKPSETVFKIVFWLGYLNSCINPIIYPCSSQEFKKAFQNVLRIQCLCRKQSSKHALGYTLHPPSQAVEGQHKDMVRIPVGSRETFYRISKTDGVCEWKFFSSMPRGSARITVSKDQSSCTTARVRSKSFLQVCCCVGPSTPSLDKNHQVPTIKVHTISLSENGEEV

[6] = molecular target: T2, 5-hydroxytryptamine receptor 1A (Homo sapiens); assay: Agonist activity at recombinant human 5HT1A receptor expressed in human HeLa cell membranes assessed as stimulation of [35S]GTPgammaS binding up to 10 uM preincubated for 20 mins followed by [35S]GTPgammaS addition measured after 30 mins by liquid scintillation counting method relative to 5-HT; format: functional
D(3) dopamine receptor = D(3) dopamine receptor (Homo sapiens, UniProt P35462); assay: Displacement of [3H]N-methylspiperone from recombinant human D3 receptor expressed in HEK293 cell membranes after 1 hr by liquid scintillation counting method
D(3) dopamine receptor, sequence (P35462 whole entry): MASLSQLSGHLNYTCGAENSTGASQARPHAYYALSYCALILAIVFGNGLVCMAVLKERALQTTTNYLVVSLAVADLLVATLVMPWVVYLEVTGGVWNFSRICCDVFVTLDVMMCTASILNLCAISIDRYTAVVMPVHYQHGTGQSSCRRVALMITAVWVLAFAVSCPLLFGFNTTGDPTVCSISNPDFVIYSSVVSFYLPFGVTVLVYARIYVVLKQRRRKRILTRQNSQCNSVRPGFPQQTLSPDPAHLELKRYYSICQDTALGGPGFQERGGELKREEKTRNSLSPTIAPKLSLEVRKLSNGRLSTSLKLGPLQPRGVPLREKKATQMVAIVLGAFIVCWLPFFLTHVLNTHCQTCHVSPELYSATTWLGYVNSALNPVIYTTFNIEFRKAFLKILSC

D(2) dopamine receptor = D(2) dopamine receptor (Homo sapiens, UniProt P14416); assay: Displacement of [3H]N-methylspiperone from recombinant human D2 receptor expressed in HEK293 cell membranes after 1 hr by liquid scintillation counting method
D(2) dopamine receptor, sequence (P14416 whole entry): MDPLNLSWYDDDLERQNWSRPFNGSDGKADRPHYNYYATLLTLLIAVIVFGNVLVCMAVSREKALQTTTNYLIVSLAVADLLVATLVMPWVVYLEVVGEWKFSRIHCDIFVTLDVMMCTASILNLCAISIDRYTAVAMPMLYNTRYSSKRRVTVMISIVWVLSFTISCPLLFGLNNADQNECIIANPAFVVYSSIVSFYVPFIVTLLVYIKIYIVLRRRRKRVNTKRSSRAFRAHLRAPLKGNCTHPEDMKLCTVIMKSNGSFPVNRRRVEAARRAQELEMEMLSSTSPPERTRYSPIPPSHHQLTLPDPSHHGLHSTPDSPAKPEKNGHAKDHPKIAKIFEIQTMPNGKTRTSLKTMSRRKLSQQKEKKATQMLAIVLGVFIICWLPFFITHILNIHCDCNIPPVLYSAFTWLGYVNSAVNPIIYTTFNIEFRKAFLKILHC

D(4) dopamine receptor = molecular target: T6, D(4) dopamine receptor (Homo sapiens, UniProt P21917); assay: Displacement of [3H]N-methylspiperone from recombinant human D4 receptor expressed in HEK293 cell membranes after 1 hr by liquid scintillation counting method
T6 sequence (P21917 whole entry): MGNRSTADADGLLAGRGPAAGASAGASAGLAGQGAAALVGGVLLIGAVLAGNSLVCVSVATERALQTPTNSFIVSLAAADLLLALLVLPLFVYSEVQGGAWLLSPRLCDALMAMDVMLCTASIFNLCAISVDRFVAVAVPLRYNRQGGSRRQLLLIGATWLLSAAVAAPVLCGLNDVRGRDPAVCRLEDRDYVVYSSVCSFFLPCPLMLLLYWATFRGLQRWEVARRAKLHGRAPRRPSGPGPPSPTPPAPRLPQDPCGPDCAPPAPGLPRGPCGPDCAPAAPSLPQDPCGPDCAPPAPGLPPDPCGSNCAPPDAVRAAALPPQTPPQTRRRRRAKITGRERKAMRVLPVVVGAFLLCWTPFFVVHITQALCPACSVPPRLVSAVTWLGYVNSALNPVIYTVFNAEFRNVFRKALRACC

[7] = Selectivity index, ratio of Ki for recombinant human alpha-1d adrenergic receptor expressed in CHO cell membranes to Ki for recombinant human 5HT1A receptor expressed in human HeLa cell membranes
[8] = Selectivity index, ratio of Ki for recombinant human D2 receptor expressed in HEK293 cell membranes to Ki for recombinant human 5HT1A receptor expressed in human HeLa cell membranes
[9] = Selectivity index, ratio of Ki for recombinant human D3 receptor expressed in HEK293 cell membranes to Ki for recombinant human 5HT1A receptor expressed in human HeLa cell membranes
[10] = Selectivity index, ratio of Ki for recombinant human D4 receptor expressed in HEK293 cell membranes to Ki for recombinant human 5HT1A receptor expressed in human HeLa cell membranes

Row | Ki [1] [nM] | pD2 [2] | Ki [3] [nM] | Ki [4] [nM] | Ki [5] [nM] | Emax [6] [%] | SMILES | also measured
1 | – | 7.7 | – | – | – | – | COc1ccccc1OCCNC[C@@H]1COCC(c2ccccc2)(c2ccccc2)O1 | –
2 | – | – | – | 37.2 | – | – | c1ccc(OCCNCC2COC(c3ccccc3)(c3ccccc3)CO2)cc1 (racemic) | –
3 | – | – | – | 7.59 | – | – | COc1ccccc1OCCNCC1COC(c2ccccc2)(c2ccccc2)CO1 (racemic) | –
4 | – | – | – | 229 | – | – | COc1cccc(OC)c1OCCNCC1COC(c2ccccc2)(c2ccccc2)CO1 (racemic) | –

More lines, now with the values behind:

Row | SMILES | Ki [1] [nM] | pD2 [2] | Ki [3] [nM] | Ki [4] [nM] | Ki [5] [nM] | Emax [6] [%] | also measured
5 | O=C1CC2(CCCC2)CC(=O)N1CCN1CCN(c2ccccc2O)CC1 | 16.2 | – | – | – | – | – | –
6 | COc1ccccc1N1CCN(CCN2C(=O)CC3(CCCC3)CC2=O)CC1 | – | 9.27 | – | – | – | – | –
7 | COc1cccc(OC)c1OCCNC[C@H]1COCC(c2ccccc2)(c2ccccc2)O1 | – | 8.3 | – | – | – | – | –
8 | O=[N+]([O-])c1ccccc1OCCNCC1COCC(c2ccccc2)(c2ccccc2)O1 (racemic) | 6.61 | 8.93 | 251 | 0.562 | 117 | 82.5 to 82.6 | –
9 | c1ccc(C2(c3ccccc3)COCC(CNCCOc3ccccn3)O2)cc1 (racemic) | 5.5 | 8.02 | 115 | 0.891 | 155 | 63.9 | –
10 | Oc1ccccc1OCCNCC1COCC(c2ccccc2)(c2ccccc2)O1 (racemic) | 77.6 | 7.8 | 372 | 0.692 | 195 | 65.6 | Ki (D(3) dopamine receptor): 33.9 nM; Ki (D(2) dopamine receptor): 15.5 nM; Ki (D(4) dopamine receptor): 36.3 nM; Ratio Ki [7]: 112; Ratio Ki [8]: 22; Ratio Ki [9]: 49; Ratio Ki [10]: 53
